# Test results taken from patent publication EP4014964A1, “TOPICAL FORMULATION” (Almirall S.A., priority 2020, dated 2022).
# Test system: immortalized human sebocyte cell line, SZ95
# Assay: In vitro assay of inhibition of Lipid Synthesis
# Type: cell-based
# Settings: SZ95 cells, lipid synthesis induced by 75µM AA, 48h, neutral lipids measured with AdipoRed fluorescence
# Method: To evaluate the inhibition of lipid synthesis, the immortalized human sebocyte cell line, SZ95 (stablished by Zouboulis, C.C. et al J Invest Dermatol 1999; 113: 1011-20), was treated with arachidonic acid (AA) in presence or absence of compound. Lipids were detected by using a lipid sensing fluorophore.
# 10k cells were plated in 384 well microtiter plates and incubated at 37 °C and 5% CO2 in DMEM/F12 supplemented with 10% FBS, 1.25ng/ml of rhEGF and GA-1000, using the MicroClime Lids from Labcyte to reduce the edge effect, before of compound and stimulus addition.
# After 24h, compounds were dissolved in DMSO 100%. Then the stocks were serial diluted 1/3 in DMSO 100%, and this battery of solutions were diluted 1/10 in culture medium. Later, compounds dissolved in culture media were added over cells, diluting the solutions prepared 1/40 in the final volume of the assay. Then, cells and compounds were preincubated for 30 min at 37 °C and 5% CO2. After this prior incubation, the lipid synthesis was induced by 75µM of AA final solution, preparing a solution 10x in culture media containing a 1.25% of DMSO. Finally, SZ95 treated were incubated for 48h at 37°C and 5% CO2.
# Neutral lipids were measured using AdipoRedTM, purchased from Lonza. To do that, cells were washed with PBS and incubated with a solution of AdipoRedTM (final dilution 1/80 in PBS) for 30 min at room temperature. After the staining process, the fluorescence intensity (FI) was quantified using a fluorescence plate reader (excitation 485 nm; emission 535).
# Activity of compounds was calculated as % of inhibition considering the maximal fluorescence for AA-stimulated cells and the minimum fluorescence for unstimulated cells as controls.
Compound,IC50 (Homo sapiens) [nM],IC50 [nM]
"CCCCCCCc1ccc(-c2c[nH]c(C(=O)O)c2F)c(Cl)c1 [Example 1, 4-(2-Chloro-4-heptylphenyl)-3-fluoro-1H-pyrrole-2-carboxylic acid]",< 200,
"CCCCCCCc1ccc(-c2c[nH]c(C(=O)O)c2F)c(CC)c1 [Example 2, 4-(2-Ethyl-4-heptylphenyl)-3-fluoro-1H-pyrrole-2-carboxylic acid]",< 200,
"CCCCCCCCCCCCCc1c[nH]c(C(=O)O)c1F [Example 3, 3-Fluoro-4-tridecyl-1H-pyrrole-2-carboxylic acid]",< 50,
"CCCCCCCCC1CCC(c2c[nH]c(C(=O)O)c2F)CC1 (stereo not shown) [Example 4, 3-Fluoro-4-((1r,4s)-4-octylcyclohexyl)-1H-pyrrole-2-carboxylic acid]",,< 200
